The subject of the experiment is insects in wheat. Briefly: Monitoring efficiency of Deltamethrin pest control treatment in wheat with the TV1061 sensor. The format is in vivo. The note with it: FIG. 13. How it is done: Reference is now made to FIG. 13 showing monitoring efficiency of Deltamethrin pest control treatment in wheat. To determinate system capability to test the efficiency of the pest control treatments, infected and clean wheat were treated with Deltamethrin. Then, sensor (with TV1061 strain) was placed into the treated chambers. […] Deltamethrin is not effective against eggs inside the wheat. Therefore insects inside wheat (in eggs) will be destroyed at the time when they will hatch and walk out. […] Then decreasing in the sensor responses to the background levels may be explained by killing these insects by Deltamethrin residues on the wheat.

Take `CC1(C)[C@H](C(=O)O[C@H](C#N)c2cccc(Oc3ccccc3)c2)[C@@H]1C=C(Br)Br` [Deltamethrin]: under “eggs inside the wheat, sensor response increased on the third day after sanitization”, the “effectiveness against eggs inside the wheat” value is recorded as “not effective”. In addition, the “pest control efficiency (insects in infected wheat)” value (infected and clean wheat treated, inferred from similar TV1061 sensor responses in infected and uninfected sample) is recorded as “all insects were destroyed”.

The values are drawn from patent publication US20210302318A1, “MEANS AND METHOD FOR THE REAL-TIME ANALYSIS OF HARVESTED CROPS” (THE STATE OF ISRAEL, MINISTRY OF AGRICULTURE & RURAL …, priority 2018, published 2021).
